The nature of assay [1]: Ratio of compound IC50 to bivalent ligand 1 IC50 for PKA.
Assay [2] is described as follows: Noncompetitive inhibition of PKA assessed as [gamma-32P]ATP labeling of kemptide by liquid scintillation counting.
The nature of assay [3]: Mixed inhibition of PKA assessed as [gamma-32P]ATP labeling of kemptide by liquid scintillation counting.
The nature of assay [4]: Uncompetitive inhibition of PKA assessed as [gamma-32P]ATP labeling of kemptide by liquid scintillation counting.
Assay [5] in a line: Competitive inhibition of PKA assessed as [gamma-32P]ATP labeling of kemptide by liquid scintillation counting.
Assay [6] can be described thus: Ratio of inhibition of PKA in presence of DTT to inhibition of PKA in absence of DTT.

Each structure is given as a SMILES string. *1 amine or outer side, *2 acyl side, *3 side chain or, on linkers, in order; H or OH if unused. Where a SMILES comes first, the peptide text is derived from it. Bridges are numbered along the chain shown (N, C = ends). The star is where a group is joined. Staurosporine = CO[C@@H]1[C@H](N(C)*)C[C@H]2O[C@]1(C)n1c3ccccc3c3c4c(c5c6ccccc6n2c5c31)C(=O)NC4; Suc = O=C(CCC(=O)[*:2])[*:1]; βAla = NCCC(=O)O

For the molecule `CC(C)[C@@H]1NC(=O)[C@H](CCCNC(=N)N)NC(=O)[C@H](Cc2ccccc2)NC(=O)[C@H](C(C)C)NC(=O)[C@@H](N)CSSC[C@@H](C(=O)NCC(N)=O)NC(=O)CNC(=O)[C@H](Cc2ccccc2)NC1=O` (HELM PEPTIDE1{C.V.F.R.V.F.G.C.G.[am]}$PEPTIDE1,PEPTIDE1,1:R3-8:R3$$$V2.0), the Ratio IC50 in assay [1] is more than 21000. Further, in assay [2], the inhibition constant Ki was 85.6 µM and the Michaelis constant (Km) worked out at 13.3 µM.

As to `CO[C@@H]1[C@H](N(C)C(=O)CCC(=O)NCCCOCCCNC(=O)COCC(=O)N[C@H]2CSSC[C@@H](C(=O)NCC(N)=O)NC(=O)CNC(=O)[C@H](Cc3ccccc3)NC(=O)[C@H](C(C)C)NC(=O)[C@H](CCCNC(=N)N)NC(=O)[C@H](Cc3ccccc3)NC(=O)[C@H](C(C)C)NC2=O)C[C@H]2O[C@]1(C)n1c3ccccc3c3c4c(c5c6ccccc6n2c5c31)C(=O)NC4` (HELM PEPTIDE1{[CO[C@@H]1[C@H](N(C)C(=O)CCC(=O)NCCCOCCCNC(=O)COCC(=O)[*:2])C[C@H]2O[C@]1(C)n1c3ccccc3c3c4c(c5c6ccccc6n2c5c31)C(=O)NC4].C.V.F.R.V.F.G.C.G.[am]}$PEPTIDE1,PEPTIDE1,2:R3-9:R3$$$V2.0), the Km was found to be 11.2 µM in assay [3], 13.9 µM in assay [4] and 12 µM in assay [2]. For the same molecule, the inhibition constant (Ki) in assay [2] amounted to 0.002 µM; in assay [5], 10.1 µM.

As for `CO[C@@H]1[C@H](N(C)C(=O)CCC(=O)NCCC(=O)NCCC(=O)NCCC(=O)NCCC(=O)NCCC(=O)NCCC(=O)NCCC(=O)NCCC(=O)NCCC(=O)N[C@H]2CSSC[C@@H](C(=O)NCC(N)=O)NC(=O)CNC(=O)[C@H](Cc3ccccc3)NC(=O)[C@H](C(C)C)NC(=O)[C@H](CCCNC(=N)N)NC(=O)[C@H](Cc3ccccc3)NC(=O)[C@H](C(C)C)NC2=O)C[C@H]2O[C@]1(C)n1c3ccccc3c3c4c(c5c6ccccc6n2c5c31)C(=O)NC4` ({Staurosporine-Suc-βAla-βAla-βAla-βAla-βAla-βAla-βAla-βAla-βAla}-CVFRVFGCG-NH2; disulfide 1-8), the Ratio in assay [6] stood at 2.7.

As to `CO[C@@H]1[C@H](N(C)C(=O)CCC(=O)NCCC(=O)NCCC(=O)NCCC(=O)NCCC(=O)NCCC(=O)N[C@H]2CSSC[C@@H](C(=O)NCC(N)=O)NC(=O)CNC(=O)[C@H](Cc3ccccc3)NC(=O)[C@H](C(C)C)NC(=O)[C@H](CCCNC(=N)N)NC(=O)[C@H](Cc3ccccc3)NC(=O)[C@H](C(C)C)NC2=O)C[C@H]2O[C@]1(C)n1c3ccccc3c3c4c(c5c6ccccc6n2c5c31)C(=O)NC4` ({Staurosporine-Suc-βAla-βAla-βAla-βAla-βAla}-CVFRVFGCG-NH2; disulfide 1-8), in assay [6], the Ratio worked out at 2.7.

For `CO[C@@H]1[C@H](N(C)C(=O)CCC(=O)NCCC(=O)NCCC(=O)NCCC(=O)N[C@H]2CSSC[C@@H](C(=O)NCC(N)=O)NC(=O)CNC(=O)[C@H](Cc3ccccc3)NC(=O)[C@H](C(C)C)NC(=O)[C@H](CCCNC(=N)N)NC(=O)[C@H](Cc3ccccc3)NC(=O)[C@H](C(C)C)NC2=O)C[C@H]2O[C@]1(C)n1c3ccccc3c3c4c(c5c6ccccc6n2c5c31)C(=O)NC4` ({Staurosporine-Suc-βAla-βAla-βAla}-CVFRVFGCG-NH2; disulfide 1-8), the Ratio in assay [6] turned out to be 2.7.

`CC(C)C[C@H](NC(=O)[C@H](CO)NC(=O)[C@H](C)NC(=O)[C@H](CCCNC(=N)N)NC(=O)[C@H](CCCNC(=N)N)NC(=O)[C@@H](N)CC(C)C)C(=O)NCC(=O)O` [KEMPTIDE]: in assay [2], the Ki is 86 µM and the Km amounted to 13.3 µM.

As usually defined, the Ki is the dissociation constant of the complex between target and ligand, obtained from inhibition or displacement. By Km is commonly meant the concentration of substrate that gives half-maximal velocity.

The values are drawn from ChEMBL document CHEMBL1152541, “Staurosporine tethered peptide ligands that target cAMP-dependent protein kinase (PKA): optimization and selectivity profiling” (Bioorg Med Chem, 2009).
